# Results taken from patent US5583142A, “Analgesic and nootropic drugs” (priority 1992, dated 1996).
# Where “and” joins values, the source holds several entries; their conditions need not be identical. Identical values can stand only once. Counter-ions that a name gives are not always drawn. Like-named read-outs stand apart in the source and are kept apart here.
# Columns and labels:
# [1] = mouse acetic acid writhing test; format: in vivo; details: for efficacy in writhing test, in words / number of writhes / Efficacy as analgesic (Morphine = 100) / percent inhibition: mouse; for Efficacy as analgesic (Morphine = 100) / percent inhibition: writhing; for ED50: mouse writhing
# Protocol: (§1) The analgesic action was detected in mouse, rat, guinea pig and dog. The mouse was subjected to hot plate and writhing tests; the rat to tail-flick and paw-pressure tests; the guinea pig to paw-pressure test only; the dog to the test described by Vainio et al. [J. Vet. Pharmacol. Ther., 12, 225-231 (1989)] using an electric stimulation. Consequently, the claimed compounds were tested with pain being induced by stimuli of different nature: thermal (hot plate and tail flick), chemical (writhing by acetic acid), mechanical (paw pressure) and electrical (cutaneous stimulation).
# The claimed molecules, chosen as examples, were also assayed in mice by the writhing test (Table 4). The test is meant to evaluate the products capability to prevent mice writhes ensuing abdominal pains caused by i.p. injection of a 0.6% aqueous solution of acetic acid.
# Acetic acid solution = 0.6% v/v.
# [2] = rat paw-pressure test; format: in vivo
# Protocol: as §1
# (§2) As already mentioned, the claimed products were assayed also in rat by the paw-pressure and tail-flick tests.
# (§3) Both tests were carried out with the max. doses not impairing the rats normal behaviour. […] The painful stimulus utilized in the paw-pressure test involved the animal consciousness to a much greater extent than the stimulus used in the tail-flick test, in fact, the type and anatomic localization of the latter mainly involved a spinal response.
# (§4) Both tests on rats were carried out with the max. doses not altering the behaviour of the treated animals.
# [3] = rat tail-flick test; format: in vivo
# Protocol: as §1, §2, §3, §4
# The test was performed using th
# [4] = mouse rota-rod test (16 r.p.m.)
# From the text: All products tested to detect their antinociceptive activity had been previously tested by the rota-rod test to determine their maximum utilizable dose in analgesic tests. In fact, by this test it is possible to determine the highest dose of drug not impairing the normal performance of animals in a test that simultaneously evaluates motor coordination, equilibrium, resistance to fatigue, and muscle strength. This test is meant to evaluate the capability of mice to stay balanced on a rotating rod [cf. Vaught et al., Neuropharmacology, 24 (3) 211-216 (1985)].
# The calculated doses were those used in the two analgesic tests on mice.
# [5] = format: in vivo, mouse; details: for ED50 compared with claimed compounds / analgesic efficacy / degree of analgesia compared with claimed compounds: mouse hot plate; for Efficacy as analgesic (Morphine = 100), M.E. (Maximum Analgesic Effect) / Efficacy as analgesic (Morphine = 100), AUC (Area Under Curve): in vivo
# Protocol: as §1
# (§5) Potency, efficacy and toxicity of SM21, PG9 and SM32 in comparison with
# (§6) four principal reference analgesic drugs tested in mouse. As analgesic
# [6] = in vivo; details: mouse
# From the text: as §5, §6
# [7] = paw-pressure test in rats with a lesion in the nucleus basalis magnocellularis (NBM); format: in vivo, rat; details: 4 mg/kg i.p.
# From the text: 3. […] In fact, as known, the magnocellular basal nucleus destruction causes the degeneration of most central cholinergic system.
# [8] = 15 mg/kg i.p., 15 min after treatment
# [9] = 15 mg/kg i.p., 30 min after treatment
# [10] = 15 mg/kg i.p., 45 min after treatment
# [11] = 25 mg/kg s.c., 15 min after treatment
# [12] = 25 mg/kg s.c., 30 min after treatment
# [13] = 25 mg/kg s.c., 45 min after treatment
# [14] = mouse, 20 mg/kg i.p., 15 min after treatment
# [15] = mouse, 20 mg/kg i.p., 30 min after treatment
# [16] = mouse, 20 mg/kg i.p., 45 min after treatment
# [17] = mouse, 20 mg/kg s.c., 15 min after treatment
# [18] = mouse, 20 mg/kg s.c., 30 min after treatment
# [19] = mouse, 20 mg/kg s.c., 45 min after treatment
# [20] = 25 mg/kg i.p., 15 min after treatment
# [21] = 25 mg/kg i.p., 30 min after treatment
# [22] = 25 mg/kg i.p., 45 min after treatment
# [23] = 100 mg/kg i.p., 15 min after treatment
# [24] = 100 mg/kg i.p., 30 min after treatment
# [25] = 100 mg/kg i.p., 45 min after treatment
smiles,measurement,setting,value
"CN(C)CCOC(c1ccccc1)c1ccccc1 [Diphenhydramine, reference compound]","efficacy in writhing test, in words",[1],far less efficacious
same,number of writhes,[1]; 20 mg/kg s.c.,24.6 ± 2.4
same,Efficacy as analgesic (Morphine = 100),[1]; 20 mg/kg s.c.,38
same,percent inhibition,[1]; 20 mg/kg s.c.,28.1%
same,ED50,[1]; sc,7.8 mg/kg and 30.5 µmol/kg
same,"activity in paw-pressure test, in words",[2],inactive
same,paw-pressure,[2]; [8],72.6 ± 6.8 g
same,paw-pressure,[2]; [9],70.0 ± 5.4 g
same,paw-pressure,[2]; [10],68.0 ± 6.6 g
same,"activity in tail-flick test, in words",[3],inactive
same,tail-flick,[3]; [8],2.9 ± 0.2 s
same,tail-flick,[3]; [9],2.5 ± 0.2 s
same,tail-flick,[3]; [10],2.5 ± 0.1 s
same,rota-rod performance (number of falls in 30 s),[4]; [11],2.0 ± 0.5 falls in 30 s
same,rota-rod performance (number of falls in 30 s),[4]; [12],1.0 ± 0.3 falls in 30 s
same,rota-rod performance (number of falls in 30 s),[4]; [13],1.4 ± 0.4 falls in 30 s
same,rota-rod performance (number of falls in 30 s),"[4]; 30 mg/kg s.c., 15 min after treatment",2.1 ± 0.4 falls in 30 s
same,rota-rod performance (number of falls in 30 s),"[4]; 30 mg/kg s.c., 30 min after treatment",1.5 ± 0.3 falls in 30 s
same,rota-rod performance (number of falls in 30 s),"[4]; 30 mg/kg s.c., 45 min after treatment",1.5 ± 0.4 falls in 30 s
same,rota-rod performance (number of falls in 30 s),"[4]; 40 mg/kg s.c., 15 min after treatment",4.3 ± 0.4 falls in 30 s
same,rota-rod performance (number of falls in 30 s),"[4]; 40 mg/kg s.c., 30 min after treatment",3.1 ± 0.4 falls in 30 s
same,rota-rod performance (number of falls in 30 s),"[4]; 40 mg/kg s.c., 45 min after treatment",2.3 ± 0.4 falls in 30 s
same,ED50 compared with claimed compounds,[5],equivalent to those of the claimed compounds
same,analgesic efficacy / degree of analgesia compared with claimed compounds,[5],much lower degree of analgesia
same,"Efficacy as analgesic (Morphine = 100), M.E. (Maximum Analgesic Effect)",[5]; mouse,43
same,hot-plate latency,[5]; [14],21.6 ± 2.5 s
same,hot-plate latency,[5]; [15],17.7 ± 1.6 s
same,hot-plate latency,[5]; [16],17.1 ± 1.8 s
same,hot-plate latency,[5]; [17],23.6 ± 2.6 s
same,hot-plate latency,[5]; [18],18.0 ± 1.4 s
same,hot-plate latency,[5]; [19],18.7 ± 2.1 s
"CN(C)CCCN1c2ccccc2CCc2ccc(Cl)cc21 [Clomipramine HCl, reference compound]","efficacy in writhing test, in words",[1],far less efficacious
same,number of writhes,[1]; 20 mg/kg s.c.,18.2 ± 2.1
same,Efficacy as analgesic (Morphine = 100),[1]; 20 mg/kg s.c.,63
same,percent inhibition,[1]; 20 mg/kg s.c.,46.8%
same,ED50,[1]; sc,9.7 mg/kg and 27.6 µmol/kg
same,LD50,[6]; iv,44 mg/kg and 125 µmol/kg
same,"activity in paw-pressure test, in words",[2],almost equivalent analgesia
same,paw-pressure,[2]; [20],85.0 ± 6.8 g
same,paw-pressure,[2]; [21],99.0 ± 6.6 g
same,paw-pressure,[2]; [22],91.7 ± 7.4 g
same,"activity in tail-flick test, in words",[3],inactive
same,tail-flick,[3]; [20],2.9 ± 0.2 s
same,tail-flick,[3]; [21],2.6 ± 0.1 s
same,tail-flick,[3]; [22],2.6 ± 0.2 s
same,rota-rod performance (number of falls in 30 s),[4]; [11],2.4 ± 0.5 falls in 30 s
same,rota-rod performance (number of falls in 30 s),[4]; [12],2.1 ± 0.6 falls in 30 s
same,rota-rod performance (number of falls in 30 s),[4]; [13],2.1 ± 0.6 falls in 30 s
same,rota-rod performance (number of falls in 30 s),"[4]; 45 mg/kg s.c., 15 min after treatment",2.8 ± 0.4 falls in 30 s
same,rota-rod performance (number of falls in 30 s),"[4]; 45 mg/kg s.c., 30 min after treatment",3.6 ± 0.4 falls in 30 s
same,rota-rod performance (number of falls in 30 s),"[4]; 45 mg/kg s.c., 45 min after treatment",3.5 ± 0.6 falls in 30 s
same,rota-rod performance (number of falls in 30 s),"[4]; 50 mg/kg s.c., 15 min after treatment",1.8 ± 0.4 falls in 30 s
same,rota-rod performance (number of falls in 30 s),"[4]; 50 mg/kg s.c., 30 min after treatment",1.8 ± 0.4 falls in 30 s
same,rota-rod performance (number of falls in 30 s),"[4]; 50 mg/kg s.c., 45 min after treatment",1.5 ± 0.4 falls in 30 s
same,rota-rod performance (number of falls in 30 s),"[4]; 60 mg/kg s.c., 15 min after treatment",1.5 ± 0.4 falls in 30 s
same,rota-rod performance (number of falls in 30 s),"[4]; 60 mg/kg s.c., 30 min after treatment",2.6 ± 0.3 falls in 30 s
same,rota-rod performance (number of falls in 30 s),"[4]; 60 mg/kg s.c., 45 min after treatment",3.1 ± 0.5 falls in 30 s
same,NOAEL,"[4]; mouse, in vivo, sc",20.2 mg/kg
same,ED50 compared with claimed compounds,[5],equivalent to those of the claimed compounds
same,analgesic efficacy / degree of analgesia compared with claimed compounds,[5],much lower degree of analgesia
same,"Efficacy as analgesic (Morphine = 100), AUC (Area Under Curve)",[5]; mouse,17
same,"Efficacy as analgesic (Morphine = 100), M.E. (Maximum Analgesic Effect)",[5]; mouse,19
same,hot-plate latency,[5]; [14],24.8 ± 2.8 s
same,hot-plate latency,[5]; [15],25.2 ± 2.2 s
same,hot-plate latency,[5]; [16],23.2 ± 2.1 s
same,hot-plate latency,[5]; [17],17.4 ± 1.1 s
same,hot-plate latency,[5]; [18],19.3 ± 0.9 s
same,hot-plate latency,[5]; [19],16.5 ± 0.8 s
"NCC(CC(=O)O)c1ccc(Cl)cc1 (stereo not shown) [Baclofen, reference compound]",paw-pressure,"[7]; lesioned (NBM) rats, 15 min after treatment",117.4 ± 6.4 g
same,paw-pressure,"[7]; lesioned (NBM) rats, 30 min after treatment",137.9 ± 4.8 g
same,paw-pressure,"[7]; lesioned (NBM) rats, 45 min after treatment",131.8 ± 5.7 g
same,paw-pressure,"[7]; sham rats, 15 min after treatment",108.7 ± 6.6 g
same,paw-pressure,"[7]; sham rats, 30 min after treatment",132.8 ± 5.9 g
same,paw-pressure,"[7]; sham rats, 45 min after treatment",124.7 ± 5.8 g
O=C(c1ccccc1)c1ccc2n1CCC2C(=O)O (stereo not shown) [Ketorolac Trometamine],ED50,[1]; ip,8.3 mg/kg and 22 µmol/kg
same,"efficacy in writhing test, in words",[1],higher than by morphine
same,number of writhes,[1]; 10 mg/kg i.p.,6.3 ± 1.4
same,number of writhes,[1]; 175 mg/kg i.p.,0.3 ± 0.3
same,Efficacy as analgesic (Morphine = 100),[1]; 10 mg/kg i.p.,110
same,percent inhibition,[1]; 10 mg/kg i.p.,81.6%
same,Efficacy as analgesic (Morphine = 100),[1]; 175 mg/kg i.p.,133
same,percent inhibition,[1]; 175 mg/kg i.p.,99.1%
same,LD50,[6]; ip,1260 µmol/kg
same,"activity in paw-pressure test, in words",[2],almost equivalent analgesia
same,paw-pressure,[2]; [23],59.3 ± 5.6 g
same,paw-pressure,[2]; [24],97.4 ± 6.2 g
same,paw-pressure,[2]; [25],74.6 ± 5.8 g
same,"activity in tail-flick test, in words",[3],inactive
same,tail-flick,[3]; [23],3.3 ± 0.2 s
same,tail-flick,[3]; [24],3.2 ± 0.2 s
same,tail-flick,[3]; [25],2.6 ± 0.3 s
same,"Efficacy as analgesic (Morphine = 100), AUC (Area Under Curve)",[5]; mouse,46
same,"Efficacy as analgesic (Morphine = 100), M.E. (Maximum Analgesic Effect)",[5]; mouse,55
same,hot-plate latency,"[5]; mouse, 175 mg/kg i.p., 15 min after treatment",26.5 ± 3.4 s
same,hot-plate latency,"[5]; mouse, 175 mg/kg i.p., 30 min after treatment",19.6 ± 1.4 s
same,hot-plate latency,"[5]; mouse, 175 mg/kg i.p., 45 min after treatment",17.7 ± 1.5 s
same,hot-plate latency,"[5]; mouse, 175 mg/kg s.c., 15 min after treatment",16.3 ± 1.1 s
same,hot-plate latency,"[5]; mouse, 175 mg/kg s.c., 30 min after treatment",15.0 ± 1.2 s
same,hot-plate latency,"[5]; mouse, 175 mg/kg s.c., 45 min after treatment",15.1 ± 1.6 s
same,"activity on hot plate, s.c. administration","[5]; mouse, s.c.",inactive
